According to PMC5113778, “Fragment Linking and Optimization of Inhibitors of the Aspartic Protease Endothiapepsin: Fragment‐Based Drug Design Facilitated by Dynamic Combinatorial Chemistry” (Angewandte Chemie (International Ed. in English), 2016):

Key:
Type in all cases: biochemical
endothiapepsin [1] = target: T1, endothiapepsin (Cryphonectria parasitica, UniProt P11838); assay: fluorescence-based protease assay adapted from HIV protease assay; crystal soaking
T1 construct: gene EAPA; mature active enzyme, monomer
Excerpt: fluorescence-based protease assay adapted from HIV protease assay; crystal soaking on endothiapepsin

endothiapepsin [2] = target: T1, endothiapepsin; assay: fluorescence-based protease assay adapted from HIV protease assay; Ki presumably from IC50 (Cheng-Prusoff)
Excerpt: fluorescence-based protease assay adapted from HIV protease assay; Ki presumably from IC50 (Cheng-Prusoff) on endothiapepsin

endothiapepsin [3] = target: T1, endothiapepsin; assay: fluorescence-based protease assay adapted from HIV protease assay
Excerpt: fluorescence-based protease assay adapted from HIV protease assay on endothiapepsin

T1 sequence (P11838 90-419): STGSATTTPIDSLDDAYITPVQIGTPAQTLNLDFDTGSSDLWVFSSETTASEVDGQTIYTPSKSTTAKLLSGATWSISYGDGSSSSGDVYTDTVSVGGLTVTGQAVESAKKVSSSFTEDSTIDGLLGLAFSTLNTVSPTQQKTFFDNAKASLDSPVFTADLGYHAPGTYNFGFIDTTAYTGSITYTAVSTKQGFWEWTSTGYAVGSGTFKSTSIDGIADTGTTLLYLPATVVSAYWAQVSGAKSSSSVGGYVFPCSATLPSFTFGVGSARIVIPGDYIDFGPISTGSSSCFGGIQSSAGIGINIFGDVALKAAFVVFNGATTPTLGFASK

Row | SMILES | IC50 (endothiapepsin [1]) [nM] | Ki (endothiapepsin [2]) [nM] | IC50 (endothiapepsin [3]) [nM]
1 | N[C@@H](Cc1c[nH]c2ccccc12)C(=O)N/N=C/c1cccc(/C=N/NC(=O)[C@@H](N)Cc2c[nH]c3ccccc23)c1 [compound 13, bis-acylhydrazone 13] | 54 ± 0.5 | 25.4 ± 0.2 | 
2 | N[C@@H](Cc1ccccc1)C(=O)N/N=C/c1cccc(/C=N/NC(=O)[C@@H](N)Cc2ccccc2)c1 [compound 16, bis-acylhydrazone 16] |  | 980 ± 50 | 2100 ± 100
